The numbers were not newly measured in patent US12678435B2, “Prevention and/or treatment of contrast-induced acute kidney injury” (Saghmos Therapeutics Inc., priority 2016, dated 2026), which cites them from elsewhere.

In the series the test system is patients with high serum creatinine levels undergoing coronary angiography/angioplasty. The conditions noted are these: four Phase 2 clinical trials; compared with isotonic saline; published in Onbasili 2007, Rahman 2012, Shehata 2014, Liu 2015.

Structures are written as SMILES.

Take `COc1ccc(CN2CCNCC2)c(OC)c1OC` [Trimetazidine]: the “reducing the risk of contrast-induced nephropathy (CIN)” value is recorded as “more effective than isotonic saline in reducing the risk of contrast-induced nephropathy (CIN)”.
